For the test, the target named is Thrombin (Homo sapiens, UniProt P00734). The test is described as follows: Thrombin inhibition assay (Sigma Thrombin Inhibitor Screening Kit MAK243).
Setting [1] is: 80 μM peptide (screening grade, mixture of diastereomers), 15 min preincubation with thrombin at room temperature, AMC-based peptide substrate, 37 °C, 30 min incubation, fluorescence Ex/Em 350/450 nm, 384-well, replicate 1 of 2.
Where [2] appears, read: 80 μM peptide (screening grade, mixture of diastereomers), 15 min preincubation, AMC substrate, 37 °C, 30 min, fluorescence, average of two independent experiments.

As to Ac-G-P-[5-Qin]-F-NH2 [4B'], the “Percent thrombin inhibition, 1st run” value under setting [1] is -2.1%. In addition, the “Percent thrombin inhibition, Average” value under setting [2] is given as -2.5%. For the same substance, the “Percent thrombin inhibition, 2nd run” value (80 μM peptide (screening grade, mixture of diastereomers), 15 min preincubation, AMC substrate, 37 °C, 30 min, fluorescence, replicate 2 of 2) was -2.9%.
Regarding Ac-Gly-Pro-Phe-Phe-NH2 [Ac-G-P-F-F-NH2], the “Percent thrombin inhibition, Average” value (80 μM, parent peptide and HPLC-separated diastereomers of 3C' (>95% purity), 30 min incubation, average of three independent experiments) came to 7.1%. Also, the “Percent thrombin inhibition, 1st run” value (80 μM, parent peptide and HPLC-separated diastereomers of 3C' (>95% purity), 30 min incubation, replicate 1 of 3) is 9.4%. Also, the “Percent thrombin inhibition, 2nd run” value (80 μM, parent peptide and HPLC-separated diastereomers of 3C' (>95% purity), 30 min incubation, replicate 2 of 3) is given as 5.5%. Besides, the “Percent thrombin inhibition, 3rd run” value (80 μM, parent peptide and HPLC-separated diastereomers of 3C' (>95% purity), 30 min incubation, replicate 3 of 3) turned out to be 6.5%.
Take Ac-Gly-Pro-[N(Me)-2-Ind]-Phe-NH2 [3C']: the “Percent thrombin inhibition, 1st run” value under setting [1] was 96.7%. The “Percent thrombin inhibition, Average” value was determined as 96.9% under setting [2] and 97% (80 μM peptide (screening grade, mixture of diastereomers), 15 min preincubation, AMC substrate, 37 °C, 30 min, fluorescence, average of two independent experiments, listed as 3C′).

The values above are taken from paper PMC8317666, “Combining flavin photocatalysis with parallel synthesis: a general platform to optimize peptides with non-proteinogenic amino acids” (Chemical Science, 2021).
